Among the data in ChEMBL document CHEMBL1132820, “DNA minor groove interactions and the biological activity of 2,5-bis” (Bioorg Med Chem Lett, 2000) are PCP activity values, retold here.

In assay [1] the test system is Rattus norvegicus. The assay can be described thus: Number of mean cysts/g of lung tissue observed at 9-10 uM/kg/day dose of compound tested in vivo against Pneumocystis carinii pneumonia infected rats. The format is functional.
The subject of assay [2] is Rattus norvegicus. The assay can be described thus: Number of mean cysts/g of lung tissue observed at 0.9 uM/kg/day dose of compound tested in vivo against Pneumocystis carinii pneumonia infected rats. In kind it is functional.

Each structure is given as a SMILES string.

In the case of `N=C(NC1CCC1)c1ccc(-c2ccc(-c3ccc(C(=N)NC4CCC4)cc3)o2)cc1`, the PCP activity turned out to be 0.05 cysts g-1 in assay [1] and 0.67 cysts g-1 in assay [2].

For `N=C(NC1CCCCC1)c1ccc(-c2ccc(-c3ccc(C(=N)NC4CCCCC4)cc3)o2)cc1`, the PCP activity was 0.02 cysts g-1 in assay [1] and 26.2 cysts g-1 in assay [2].

Regarding `N=C(NC1CCCC1)c1ccc(-c2ccc(-c3ccc(C(=N)NC4CCCC4)cc3)o2)cc1`, the PCP activity in assay [1] turned out to be 0.03 cysts g-1; in assay [2], 0.11 cysts g-1.
